PubChem BioAssay (NCI)
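Assay format: 96-well plates, 48-hour exposure. GI50 = concentration required for 50% inhibition of growth. TGI: concentration producing complete growth inhibition.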

Legend:
Assay in all cases: NCI-60 cell line screen, 48 h
CAKI-1 renal = test system: CAKI-1 renal
EKVX NSCLC = test system: EKVX NSCLC
HOP-92 NSCLC = test system: HOP-92 NSCLC
NCI-H23 lung = test system: NCI-H23 lung
NCI-H522 lung = test system: NCI-H522 lung
MOLT-4 leukemia = test system: MOLT-4 leukemia
HT29 colon = test system: HT29 colon
UO-31 renal = test system: UO-31 renal
T-47D breast = test system: T-47D breast
PC-3 prostate = test system: PC-3 prostate

SMILES	TGI (CAKI-1 renal) [µM]	TGI (EKVX NSCLC) [µM]	TGI (HOP-92 NSCLC) [µM]	TGI (NCI-H23 lung) [µM]	TGI (NCI-H522 lung) [µM]	TGI (MOLT-4 leukemia) [µM]	TGI (HT29 colon) [µM]	TGI (UO-31 renal) [µM]	GI50 (CAKI-1 renal) [µM]	GI50 (T-47D breast) [µM]	TGI (T-47D breast) [µM]	GI50 (EKVX NSCLC) [µM]	GI50 (NCI-H23 lung) [µM]	GI50 (NCI-H522 lung) [µM]	GI50 (MOLT-4 leukemia) [µM]	GI50 (PC-3 prostate) [µM]	TGI (PC-3 prostate) [µM]	GI50 (HT29 colon) [µM]	GI50 (UO-31 renal) [µM]	GI50 (HOP-92 NSCLC) [µM]
Cc1ccc(C)c(NC(=O)c2cc(-c3ccc([N+](=O)[O-])cc3)nc(N)n2)c1	> 100	> 100	> 100	> 100	> 100	> 100	> 100	> 100	–	–	–	–	–	–	–	–	–	–	–	–
CCCN(CCC)c1ccc(CO)c(C)c1	> 100	> 100	–	> 100	60.5	> 100	> 100	> 100	38.8	13.9	33.5	28.4	35.4	19.3	26.8	17.4	57.6	90.2	> 100	–
CN1C(=O)CNC(=O)[C@H](NC(=O)c2nc3ccccc3cc2O)CSSC[C@H]1C(=O)NCCc1nc2ccccc2cc1O	> 78.1	> 61.4	> 100	60.9	7.46	14.8	16.4	46.1	> 46.6	8.09	29.7	11	13.6	2.38	1.4	18.9	> 70.4	3.12	13.7	> 100
CC(C)(C)c1ccc([I+]c2ccc(C(C)(C)C)cc2)cc1	20.8	5.24	3.5	7.57	4.8	7.79	4.78	14.8	8.3	0.745	5.67	1.42	1.69	1.39	1.96	1.17	6.05	1.34	3.62	1.25
CC(=O)/C=C/C1=C(c2cc3ccccc3s2)c2ccccc2CC1	> 100	> 100	62.6	–	72.2	> 100	> 100	59.4	51.1	8.58	> 100	39.5	–	26	13.6	18.4	> 100	21	21	14.8
O=C(Nc1ccc(Br)cc1)Nc1n[nH]c2ccccc12	> 100	> 100	> 100	> 100	> 100	> 100	> 100	> 100	> 100	> 100	> 100	> 100	> 100	55	8.98	> 82.7	> 100	> 100	25.8	> 86.3
O=Cc1ccc(-c2ccc(-c3ccc(C=O)s3)o2)s1	1.31	> 90	> 100	> 100	29.5	> 100	> 100	> 100	–	–	–	–	–	–	–	–	> 100	–	–	–
CC(=O)OC1CCn2nnc(COC(=O)NC(C)C)c21 (centres undefined)	> 100	> 100	> 100	> 100	> 100	> 100	> 100	> 100	–	–	–	–	–	–	–	–	–	–	–	–
Cn1c(=O)cc2c3c(c(NCCCO)ccc31)C(=O)c1ccccc1-2	> 100	> 100	–	> 100	> 100	> 100	> 100	> 100	1.79	13	> 100	5.23	3.37	2.5	2.07	3	> 100	2.16	1.09	–
O=c1/c(=C/c2ccc(Cl)cc2Cl)sc2nc3ccccc3n12	> 100	> 100	> 100	> 100	> 100	> 100	> 100	> 100	–	–	–	–	–	–	–	–	–	–	–	–
COc1ccc(C(O)CNC(=O)c2ccccc2)cc1 (centres undefined)	> 100	> 100	> 100	> 100	> 100	> 100	> 100	–	–	–	> 100	–	–	–	–	–	> 100	–	–	–
COc1cc(CSc2nc3ccc(C)cc3c(=O)n2Cc2ccccc2)cc(OC)c1OC	> 100	–	7.42	> 100	2.53	> 100	80.8	> 100	2.48	2.98	32.6	–	4.4	0.327	4.57	2.66	> 100	0.595	3.05	1.44
CC1=CC(C)(C)N=C2SC(c3ccc(Cl)cc3)=NN12	> 100	> 100	61.5	81.5	46.4	51	38.7	50.4	–	–	–	–	–	–	–	–	–	–	–	–
CN1CCN(c2ccc3c4c(cccc24)C(=O)N(CCN2CCN(CCCN4CCN(CCN5C(=O)c6cccc7c(N8CCN(C)CC8)ccc(c67)C5=O)CC4)CC2)C3=O)CC1	16.8	17.3	10.9	13.8	–	–	4.31	–	8.21	19.8	50	8.16	7.08	–	–	5.14	11.6	1.13	–	2.39
COc1ccc(O)c(C(=O)c2ccc(C(=O)O[C@@H]3CCCNC[C@H]3NC(=O)c3ccncc3)cc2)c1F	> 25	–	–	> 25	> 13	> 5.54	> 25	> 14	0.543	1.36	> 25	–	1.91	1.74	0.456	3.74	> 25	0.944	0.375	–
CCc1c2c(nc3cc4c(cc13)OCO4)-c1cc3c(c(=O)n1C2)COC(=O)[C@@]3(CC)OC(=O)CN	–	> 100	–	< 0.0158	0.239	< 0.01	3.83	0.0794	< 0.01	< 0.01	0.512	0.0321	< 0.01	< 0.01	< 0.01	< 0.01	> 35.5	< 0.01	< 0.01	–
